{"source": "patent US20260070902A1", "about": "“SULFONYL DERIVATIVES AS CCR6 INHIBITORS” (Hoffmann-La Roche Inc., priority 2022, published 2026)", "target": "T1, human CCR6 (Homo sapiens, UniProt P51684)", "T1 sequence (P51684 1-374)": "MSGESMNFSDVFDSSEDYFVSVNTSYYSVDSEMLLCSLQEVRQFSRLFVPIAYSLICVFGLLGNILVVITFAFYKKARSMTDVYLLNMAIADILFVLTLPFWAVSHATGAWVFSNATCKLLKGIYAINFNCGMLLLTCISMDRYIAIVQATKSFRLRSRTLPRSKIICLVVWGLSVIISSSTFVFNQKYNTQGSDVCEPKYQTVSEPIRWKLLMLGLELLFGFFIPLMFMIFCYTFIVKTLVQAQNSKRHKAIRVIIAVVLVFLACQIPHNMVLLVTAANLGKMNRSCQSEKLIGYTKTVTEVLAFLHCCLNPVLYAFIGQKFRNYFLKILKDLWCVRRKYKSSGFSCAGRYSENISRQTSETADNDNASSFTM", "experiment": "Human CCR6-CRE reporter assay", "type": "cell-based", "set-up": "The second construct contained the open reading frame of human CCR6 in the pUNO1 backbone; host or cells: 293FT cells", "conditions": "relative -Log IC50; 293FT cells transfected with human CCR6 and CRE-luciferase reporter; 6 μM Forskolin, 6 nM CCL20; 5 h", "method": "Human CCR6-CRE Reporter Assay\n293FT cells were transfected with 2 constructs using TransIT-293 (Mirus). The first construct (pGL4.29, Promega) expressed the luciferase reporter gene luc2P in response to the binding of cAMP-induced CREB to the CREelement in its promoter. The second construct contained the open reading frame of human CCR6 in the pUNO1 backbone under the control of an enhanced CMV promoter (InVivoGen). 48 h after transfection, cells were harvested and diluted to 750,000 cells/ml in culture medium (DMEM, 10% FBS, 1× pen/strep (Gibco 15140)). Compounds were 2.5-fold serially diluted in DMSO. Further dilutions were made in assay medium (DMEM, 10% FBS, 1× pen/strep, 6 μM Forskolin, 6 nM CCL20). 4 μl of the compound solution was added to a white MW384 plate, followed by 20 μl of the cell suspension. Final DMSO concentration in the assay was 0.1%. The MW384 plate was placed in an incubator at 37° C., 5% CO2 for 5 h. Luciferase activity was determined by addition of 24 μl of a 2.5× diluted BriteLite luciferase solution (Perkin Elmer), followed by luminescence measurement using a VICTOR Plate reader (Perkin Elmer). […] The relative −Log IC50 was determined with GraphPad Prism 9 using a four-parameter dose-response model.", "data": [{"smiles": "N=S(=O)(c1ccc(-c2ccn3ccnc3c2)cc1)[C@H]1CC[C@H](Nc2ccc(S(F)(F)(F)(F)F)cc2)CC1", "note": "(stereo partly drawn) [Example 93, (4-{imidazo[1,2-a]pyridin-7-yl}phenyl)[trans-4-{[4-(pentafluoro-λ^6-sulfanyl)phenyl]Amino}cyclohexyl](imino)-λ^6-sulfanone]", "values": [{"measurement": "IC50", "result": 398, "unit": "nM"}]}, {"smiles": "N=S(=O)(c1ccc(-c2ccn3ncnc3c2)cc1)[C@H]1CC[C@H](Nc2ccc(S(F)(F)(F)(F)F)cc2)CC1", "note": "(stereo partly drawn) [Example 94, [trans-4-{[4-(pentafluoro-λ^6-sulfanyl)phenyl]Amino}cyclohexyl](4-{[1,2,4]triazolo[1,5-a]pyridin-7-yl}phenyl)(imino)-λ^6-sulfanone]", "values": [{"measurement": "IC50", "result": 501, "unit": "nM"}]}, {"smiles": "CN(C)C(=O)c1cccc(-c2ccc(S(=N)(=O)[C@H]3CC[C@H](Nc4ccc(S(F)(F)(F)(F)F)cc4)CC3)cc2)c1", "note": "(stereo partly drawn) [Example 97, N,N-dimethyl-4′-{[trans-4-{[4-(pentafluoro-λ^6-sulfanyl)phenyl]Amino}cyclohexyl]sulfonimidoyl}-[1,1′-biphenyl]-3-carboxamide]", "values": [{"measurement": "IC50", "result": 1000, "unit": "nM"}]}, {"smiles": "CN(C)C(=O)c1ccc(-c2ccc(S(=N)(=O)[C@H]3CC[C@H](Nc4ccc(S(F)(F)(F)(F)F)cc4)CC3)cc2)cn1", "note": "(stereo partly drawn) [Example 100, N,N-dimethyl-5-(4-{[trans-4-{[4-(pentafluoro-λ^6-sulfanyl)phenyl]Amino}cyclohexyl]sulfonimidoyl}phenyl)pyridine-2-carboxamide]", "values": [{"measurement": "IC50", "result": 794, "unit": "nM"}]}, {"smiles": "Cc1cn2cc(-c3ccc(S(=N)(=O)[C@H]4CC[C@H](Nc5ccc(S(F)(F)(F)(F)F)cc5)CC4)cc3)ncc2n1", "note": "(stereo partly drawn) [Example 103, (4-{2-methylimidazo[1,2-a]pyrazin-6-yl}phenyl)[trans-4-{[4-(pentafluoro-λ^6-sulfanyl)phenyl]Amino}cyclohexyl](imino)-λ^6-sulfanone]", "values": [{"measurement": "IC50", "result": 1260, "unit": "nM"}]}, {"smiles": "Cc1nnc2cc(-c3ccc(S(=N)(=O)[C@H]4CC[C@H](Nc5ccc(S(F)(F)(F)(F)F)cc5)CC4)cc3)ccn12", "note": "(stereo partly drawn) [Example 104, (4-{3-methyl-[1,2,4]triazolo[4,3-a]pyridin-7-yl}phenyl)[trans-4-{[4-(pentafluoro-λ^6-sulfanyl)phenyl]Amino}cyclohexyl](imino)-λ^6-sulfanone]", "values": [{"measurement": "IC50", "result": 398, "unit": "nM"}]}, {"smiles": "CN(C)C(=O)c1ccc(-c2ccc(S(=N)(=O)[C@H]3CC[C@H](Nc4ccc(S(F)(F)(F)(F)F)cc4)CC3)cc2)nc1", "note": "(stereo partly drawn) [Example 106, N,N-dimethyl-6-(4-{[trans-4-{[4-(pentafluoro-λ^6-sulfanyl)phenyl]Amino}cyclohexyl]sulfonimidoyl}phenyl)pyridine-3-carboxamide]", "values": [{"measurement": "IC50", "result": 1580, "unit": "nM"}]}, {"smiles": "CNC(=O)c1ccc(-c2ccc(S(=N)(=O)[C@H]3CC[C@H](Nc4ccc(S(F)(F)(F)(F)F)cc4)CC3)cc2)nc1", "note": "(stereo partly drawn) [Example 107, N-methyl-6-(4-{[trans-4-{[4-(pentafluoro-λ^6-sulfanyl)phenyl]Amino}cyclohexyl]sulfonimidoyl}phenyl)pyridine-3-carboxamide]", "values": [{"measurement": "IC50", "result": 1580, "unit": "nM"}]}, {"smiles": "N=S(=O)(c1ccc(-c2ccc(C(N)=O)nc2)cc1)[C@H]1CC[C@H](Nc2ccc(S(F)(F)(F)(F)F)cc2)CC1", "note": "(stereo partly drawn) [Example 108, 5-(4-{[trans-4-{[4-(pentafluoro-λ^6-sulfanyl)phenyl]Amino}cyclohexyl]sulfonimidoyl}phenyl)pyridine-2-carboxamide]", "values": [{"measurement": "IC50", "result": 501, "unit": "nM"}]}, {"smiles": "CN(C)C(=O)c1cc(-c2ccc(S(=N)(=O)[C@H]3CC[C@H](Nc4ccc(S(F)(F)(F)(F)F)cc4)CC3)cc2)ccn1", "note": "(stereo partly drawn) [Example 109, N,N-dimethyl-4-(4-{[trans-4-{[4-(pentafluoro-λ^6-sulfanyl)phenyl]Amino}cyclohexyl]sulfonimidoyl}phenyl)pyridine-2-carboxamide]", "values": [{"measurement": "IC50", "result": 2000, "unit": "nM"}]}, {"smiles": "CNC(=O)c1cc(-c2ccc(S(=N)(=O)[C@H]3CC[C@H](Nc4ccc(S(F)(F)(F)(F)F)cc4)CC3)cc2)ccn1", "note": "(stereo partly drawn) [Example 110, N-methyl-4-(4-{[trans-4-{[4-(pentafluoro-λ^6-sulfanyl)phenyl]Amino}cyclohexyl]sulfonimidoyl}phenyl)pyridine-2-carboxamide]", "values": [{"measurement": "IC50", "result": 316, "unit": "nM"}]}, {"smiles": "N=S(=O)(c1ccc(-c2ccc(C(N)=O)cn2)cc1)[C@H]1CC[C@H](Nc2ccc(S(F)(F)(F)(F)F)cc2)CC1", "note": "(stereo partly drawn) [Example 111, 6-(4-{[trans-4-{[4-(pentafluoro-λ^6-sulfanyl)phenyl]Amino}cyclohexyl]sulfonimidoyl}phenyl)pyridine-3-carboxamide]", "values": [{"measurement": "IC50", "result": 1000, "unit": "nM"}]}, {"smiles": "N=S(=O)(c1ccc(-c2ccc3c(c2)CNC3=O)cc1)[C@H]1CC[C@H](Nc2ccc(S(F)(F)(F)(F)F)cc2)CC1", "note": "(stereo partly drawn) [Example 112, 5-(4-{[trans-4-{[4-(pentafluoro-λ^6-sulfanyl)phenyl]Amino}cyclohexyl]sulfonimidoyl}phenyl)-2,3-dihydro-1H-isoindol-1-one]", "values": [{"measurement": "IC50", "result": 398, "unit": "nM"}]}, {"smiles": "N=S(=O)(c1ccc(-c2ccc3c(c2)CCNC3=O)cc1)[C@H]1CC[C@H](Nc2ccc(S(F)(F)(F)(F)F)cc2)CC1", "note": "(stereo partly drawn) [Example 113, 6-(4-{[trans-4-{[4-(pentafluoro-λ^6-sulfanyl)phenyl]Amino}cyclohexyl]sulfonimidoyl}phenyl)-1,2,3,4-tetrahydroisoquinolin-1-one]", "values": [{"measurement": "IC50", "result": 316, "unit": "nM"}]}, {"smiles": "N=S(=O)(c1ccc(-c2ccc3c(c2)C(=O)NCC3)cc1)[C@H]1CC[C@H](Nc2ccc(S(F)(F)(F)(F)F)cc2)CC1", "note": "(stereo partly drawn) [Example 114, 7-(4-{[trans-4-{[4-(pentafluoro-λ^6-sulfanyl)phenyl]Amino}cyclohexyl]sulfonimidoyl}phenyl)-1,2,3,4-tetrahydroisoquinolin-1-one]", "values": [{"measurement": "IC50", "result": 398, "unit": "nM"}]}, {"smiles": "N=S(=O)(c1ccc(-c2ccc3c(c2)C(=O)NC3)cc1)[C@H]1CC[C@H](Nc2ccc(S(F)(F)(F)(F)F)cc2)CC1", "note": "(stereo partly drawn) [Example 115, 6-(4-{[trans-4-{[4-(pentafluoro-λ^6-sulfanyl)phenyl]Amino}cyclohexyl]sulfonimidoyl}phenyl)-2,3-dihydro-1H-isoindol-1-one]", "values": [{"measurement": "IC50", "result": 398, "unit": "nM"}]}, {"smiles": "N=S(=O)(c1ccc(-c2ccc3c(c2)CC(=O)N3)cc1)[C@H]1CC[C@H](Nc2ccc(S(F)(F)(F)(F)F)cc2)CC1", "note": "(stereo partly drawn) [Example 116, 5-(4-{[trans-4-{[4-(pentafluoro-λ^6-sulfanyl)phenyl]Amino}cyclohexyl]sulfonimidoyl}phenyl)-2,3-dihydro-1H-indol-2-one]", "values": [{"measurement": "IC50", "result": 200, "unit": "nM"}]}, {"smiles": "N=S(=O)(c1ccc(-c2ccc3c(c2)NC(=O)C3)cc1)[C@H]1CC[C@H](Nc2ccc(S(F)(F)(F)(F)F)cc2)CC1", "note": "(stereo partly drawn) [Example 117, 6-(4-{[trans-4-{[4-(pentafluoro-λ^6-sulfanyl)phenyl]Amino}cyclohexyl]sulfonimidoyl}phenyl)-2,3-dihydro-1H-indol-2-one]", "values": [{"measurement": "IC50", "result": 251, "unit": "nM"}]}, {"smiles": "N=S(=O)(c1ccc(-c2ccc3n[nH]c(=O)n3c2)cc1)[C@H]1CC[C@H](Nc2ccc(S(F)(F)(F)(F)F)cc2)CC1", "note": "(stereo partly drawn) [Example 119, 6-(4-{[trans-4-{[4-(pentafluoro-λ^6-sulfanyl)phenyl]Amino}cyclohexyl]sulfonimidoyl}phenyl)-2H,3H-[1,2,4]triazolo[4,3-a]pyridin-3-one]", "values": [{"measurement": "IC50", "result": 316, "unit": "nM"}]}, {"smiles": "N#Cc1c[nH]c2ccc(-c3ccc(S(=N)(=O)N4CCC(Nc5ccc(S(F)(F)(F)(F)F)cc5)CC4)cc3)cc12", "note": "(centres unmarked) [Example 120, 5-{4-[(4-{[4-(pentafluoro-λ^6-sulfanyl)phenyl]Amino}piperidin-1-yl)sulfonimidoyl]phenyl}-1H-indole-3-carbonitrile]", "values": [{"measurement": "IC50", "result": 63.1, "unit": "nM"}]}, {"smiles": "N#Cc1ccc(-c2ccc(S(=N)(=O)N3CCC(Nc4ccc(S(F)(F)(F)(F)F)cc4)CC3)cc2)cc1", "note": "(centres unmarked) [Example 122, 4′-[(4-{[4-(pentafluoro-λ^6-sulfanyl)phenyl]Amino}piperidin-1-yl)sulfonimidoyl]-[1,1′-biphenyl]-4-carbonitrile]", "values": [{"measurement": "IC50", "result": 398, "unit": "nM"}]}, {"smiles": "CC(C)NC(=O)c1cccc(-c2ccc(S(=O)(=O)[C@H]3CC[C@H](Nc4ccc(S(F)(F)(F)(F)F)cc4)CC3)cc2)c1", "note": "[Example 141, N-(propan-2-yl)-4′-{[trans-4-{[4-(pentafluoro-λ^6-sulfanyl)phenyl]amino}cyclohexyl]sulfonyl}-[1,1′-biphenyl]-3-carboxamide]", "values": [{"measurement": "IC50", "result": 79.4, "unit": "nM"}]}, {"smiles": "CN(C)c1cnc2ccc(-c3ccc(S(=O)(=O)[C@H]4CC[C@H](Nc5ccc(S(F)(F)(F)(F)F)cc5)CC4)cc3)cn12", "note": "[Example 143, N,N-dimethyl-6-(4-{[trans-4-{[4-(pentafluoro-λ^6-sulfanyl)phenyl]amino}cyclohexyl]sulfonyl}phenyl)imidazo[1,2-a]pyridin-3-amine]", "values": [{"measurement": "IC50", "result": 100, "unit": "nM"}]}]}
